Measured values taken from ChEMBL document CHEMBL3804804, “Synthesis and antimycobacterial activity of N-(2-aminopurin-6-yl) and N-(purin-6-yl) amino acids and dipeptides” (Bioorg Med Chem Lett, 2016).
Converted amounts (≈) assume the structure as drawn.

Experiments:
[1] = test system: Mycobacterium tuberculosis; test: Antimycobacterial activity against Mycobacterium tuberculosis H37Rv after 10 days by micro broth dilution method; type: functional; details: 240 h
Mycobacterium avium = test: Antimycobacterial activity against Mycobacterium avium after 10 days by micro broth dilution method; type: functional; details: 240 h
Mycolicibacter terrae = test: Antimycobacterial activity against Mycobacterium terrae after 10 days by micro broth dilution method; type: functional; details: 240 h
[2] = Cytotoxicity against human FEH cells after 72 hrs by MTT assay; type: cell-based

## O=C(O)CCCNc1ncnc2[nH]cnc12
[1]
  MIC: 12.5 µg/mL (≈ 56.5 µM)

## COC(=O)[C@H](CCSC)NC(=O)CNc1nc(NC(C)=O)nc2[nH]cnc12
Mycobacterium avium
  MIC: 3.1 µg/mL (≈ 7.84 µM)
[1]
  MIC: 3.1 µg/mL (≈ 7.84 µM)
Mycolicibacter terrae
  MIC: 1.5 µg/mL (≈ 3.79 µM)
[2]
  IC50: > 50 µM

## CC1COc2c(N3CCN(C)CC3)c(F)cc3c(=O)c(C(=O)O)cn1c23 (stereo unspecified) [OFLOXACIN]
Mycobacterium avium
  MIC: 0.1 µg/mL (≈ 0.277 µM)
[1]
  MIC: 0.1 µg/mL (≈ 0.277 µM)
Mycolicibacter terrae
  MIC: 0.1 µg/mL (≈ 0.277 µM)

## CC(=O)Nc1nc(N[C@H](C(=O)OC(C)(C)C)C(C)C)c2nc[nH]c2n1
[1]
  MIC: 12.5 µg/mL (≈ 35.9 µM)

## CSCC[C@H](NC(=O)CNc1ncnc2[nH]cnc12)C(=O)O.O
[1]
  MIC: 12.5 µg/mL

## CSCC[C@H](NC(=O)CNc1nc(N)nc2[nH]cnc12)C(=O)O.O
Mycobacterium avium
  MIC: 3.1 µg/mL
[1]
  MIC: 3.1 µg/mL
Mycolicibacter terrae
  MIC: 3.1 µg/mL
[2]
  IC50: > 50 µM

## COC(=O)CC[C@H](NC(=O)CNc1ncnc2[nH]cnc12)C(=O)OC
[1]
  MIC: 12.5 µg/mL (≈ 35.7 µM)

## Nc1nc(NCC(=O)O)c2nc[nH]c2n1
[1]
  MIC: 12.5 µg/mL (≈ 60 µM)

## CC(C)C[C@H](NC(=O)CNc1ncnc2[nH]cnc12)C(=O)O.O
[1]
  MIC: 12.5 µg/mL

## COC(=O)[C@H](CCSC)NC(=O)CNc1ncnc2[nH]cnc12
[1]
  MIC: 12.5 µg/mL (≈ 36.9 µM)

## O.O=C(O)CC[C@H](NC(=O)CNc1ncnc2[nH]cnc12)C(=O)O
Mycobacterium avium
  MIC: 0.7 µg/mL
[1]
  MIC: 0.7 µg/mL
Mycolicibacter terrae
  MIC: 0.7 µg/mL
[2]
  IC50: > 50 µM

## CC(C)[C@H](Nc1nc(N)nc2[nH]cnc12)C(=O)O
Mycobacterium avium
  MIC: 6.25 µg/mL (≈ 25 µM)
[1]
  MIC: 6.25 µg/mL (≈ 25 µM)
Mycolicibacter terrae
  MIC: 6.25 µg/mL (≈ 25 µM)
[2]
  IC50: > 50 µM

## COC(=O)[C@H](Cc1ccccc1)NC(=O)CNc1ncnc2[nH]cnc12
Mycobacterium avium
  MIC: 1.5 µg/mL (≈ 4.23 µM)
[1]
  MIC: 1.5 µg/mL (≈ 4.23 µM)
Mycolicibacter terrae
  MIC: 1.5 µg/mL (≈ 4.23 µM)
[2]
  IC50: > 50 µM

## Nc1nc(NCC(=O)N[C@@H](CCC(=O)O)C(=O)O)c2nc[nH]c2n1
Mycobacterium avium
  MIC: 0.35 µg/mL (≈ 1.04 µM)
[1]
  MIC: 0.7 µg/mL (≈ 2.08 µM)
Mycolicibacter terrae
  MIC: 0.35 µg/mL (≈ 1.04 µM)
[2]
  IC50: > 50 µM

## CC(=O)Nc1nc(N[C@@H](Cc2ccccc2)C(=O)OC(C)(C)C)c2nc[nH]c2n1
[1]
  MIC: 12.5 µg/mL (≈ 31.5 µM)

## CC(=O)Nc1nc(N2CCC[C@H]2C(=O)OC(C)(C)C)c2nc[nH]c2n1
Mycobacterium avium
  MIC: 6.25 µg/mL (≈ 18 µM)
[1]
  MIC: 6.25 µg/mL (≈ 18 µM)
Mycolicibacter terrae
  MIC: 6.25 µg/mL (≈ 18 µM)
[2]
  IC50: > 50 µM

## CC(=O)Nc1nc(N[C@@H](CC(=O)OC(C)(C)C)C(=O)OC(C)(C)C)c2nc[nH]c2n1
[1]
  MIC: 12.5 µg/mL (≈ 29.7 µM)

## COC(=O)[C@H](C)NC(=O)CNc1ncnc2[nH]cnc12
[1]
  MIC: 12.5 µg/mL (≈ 44.9 µM)

## CC(C)[C@H](NC(=O)CNc1ncnc2[nH]cnc12)C(=O)O.O
[1]
  MIC: 12.5 µg/mL

## Nc1nc(NCC(=O)N[C@@H](CC(=O)O)C(=O)O)c2nc[nH]c2n1
[1]
  MIC: 12.5 µg/mL (≈ 38.7 µM)

## COC(=O)[C@@H](NC(=O)CNc1nc(NC(C)=O)nc2[nH]cnc12)C(C)C
[1]
  MIC: 12.5 µg/mL (≈ 34.4 µM)

## COC(=O)[C@H](Cc1ccccc1)NC(=O)CNc1nc(NC(C)=O)nc2[nH]cnc12
[1]
  MIC: 12.5 µg/mL (≈ 30.4 µM)

## COC(=O)C[C@H](NC(=O)CNc1nc(NC(C)=O)nc2[nH]cnc12)C(=O)OC
[1]
  MIC: 12.5 µg/mL (≈ 31.8 µM)

## O.O=C(CNc1ncnc2[nH]cnc12)N[C@@H](Cc1ccccc1)C(=O)O
[1]
  MIC: 3.1 µg/mL
[2]
  IC50: > 50 µM

## COC(=O)[C@H](CC(C)C)NC(=O)CNc1ncnc2[nH]cnc12
[1]
  MIC: 12.5 µg/mL (≈ 39 µM)

## CC(=O)Nc1nc(N[C@@H](C)C(=O)OC(C)(C)C)c2nc[nH]c2n1
[1]
  MIC: 12.5 µg/mL (≈ 39 µM)

## Nc1nc(N[C@@H](Cc2ccccc2)C(=O)O)c2nc[nH]c2n1
[1]
  MIC: 12.5 µg/mL (≈ 41.9 µM)

## NNC(=O)c1ccncc1 [ISONIAZID]
Mycobacterium avium
  MIC: 0.1 µg/mL (≈ 0.729 µM)
[1]
  MIC: 0.1 µg/mL (≈ 0.729 µM)
Mycolicibacter terrae
  MIC: 0.1 µg/mL (≈ 0.729 µM)

## COC(=O)CC[C@H](NC(=O)CNc1nc(NC(C)=O)nc2[nH]cnc12)C(=O)OC
[1]
  MIC: 12.5 µg/mL (≈ 30.7 µM)

## COC(=O)CNc1nc(N)nc2[nH]cnc12.Cl.Cl
Mycobacterium avium
  MIC: 6.25 µg/mL
[1]
  MIC: 6.25 µg/mL
Mycolicibacter terrae
  MIC: 6.25 µg/mL
[2]
  IC50: > 50 µM

## CC(=O)Nc1nc(NCC(=O)O)c2nc[nH]c2n1
Mycobacterium avium
  MIC: 0.7 µg/mL (≈ 2.8 µM)
[1]
  MIC: 0.7 µg/mL (≈ 2.8 µM)
Mycolicibacter terrae
  MIC: 0.7 µg/mL (≈ 2.8 µM)
[2]
  IC50: > 50 µM

## O=C(O)CCNc1[nH]cnc2ncnc1-2
[1]
  MIC: 12.5 µg/mL (≈ 60.3 µM)

## Nc1nc(NCC(=O)N[C@@H](Cc2ccccc2)C(=O)O)c2nc[nH]c2n1.O.O
[1]
  MIC: 6.25 µg/mL

## Nc1nc(N2CCC[C@H]2C(=O)O)c2nc[nH]c2n1
[1]
  MIC: 12.5 µg/mL (≈ 50.4 µM)

## C[C@H](NC(=O)CNc1nc(N)nc2[nH]cnc12)C(=O)O.O
[1]
  MIC: 6.25 µg/mL

## C[C@H](NC(=O)CNc1ncnc2[nH]cnc12)C(=O)O.O
[1]
  MIC: 12.5 µg/mL

## O=C(O)CCCCCNc1ncnc2[nH]cnc12
[1]
  MIC: 12.5 µg/mL (≈ 50.1 µM)

## C[C@H](Nc1nc(N)nc2[nH]cnc12)C(=O)O
[1]
  MIC: 12.5 µg/mL (≈ 56.3 µM)

## CC(C)[C@H](NC(=O)CNc1nc(N)nc2[nH]cnc12)C(=O)O.O.O
[1]
  MIC: 12.5 µg/mL

## COC(=O)[C@@H](NC(=O)CNc1ncnc2[nH]cnc12)C(C)C
[1]
  MIC: 12.5 µg/mL (≈ 40.8 µM)

## O=C(O)CNc1ncnc2[nH]cnc12
[1]
  MIC: 6.25 µg/mL (≈ 32.4 µM)

## CC(C)C[C@H](NC(=O)CNc1nc(N)nc2[nH]cnc12)C(=O)O.O
[1]
  MIC: 12.5 µg/mL

## COC(=O)[C@H](CC(C)C)NC(=O)CNc1nc(NC(C)=O)nc2[nH]cnc12
[1]
  MIC: 12.5 µg/mL (≈ 33.1 µM)

## COC(=O)[C@H](C)NC(=O)CNc1nc(NC(C)=O)nc2[nH]cnc12.O
[1]
  MIC: 12.5 µg/mL
